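Dose response: 5 concentrations. Exposure: 48 h. Format: 96-well plates. Endpoint: linear interpolation; highest concentration if not reached. Abbreviation: GI50, concentration required for 50% inhibition of growth.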 Active and inactive are the calls of the source. No stated cut-off is given here; in the data, active = GI50 up to about 1.1 µM and inactive = higher.
Legend:
Assay in all cases: NCI anticancer screen, dose series, 48 h
MCF7 = tested on: MCF7
EKVX = tested on: EKVX
COLO 205 = tested on: COLO 205
CAKI-1 = tested on: CAKI-1
SF-268 = tested on: SF-268
SNB-75 = tested on: SNB-75
HL-60 = tested on: HL-60
LOX IMVI = tested on: LOX IMVI
Hs-578T = tested on: Hs-578T
SNB-19 = tested on: SNB-19
A549 = tested on: A549
HCT-116 = tested on: HCT-116
OVCAR-5 = tested on: OVCAR-5
PC-3 = tested on: PC-3
SF-295 = tested on: SF-295
OVCAR-3 = tested on: OVCAR-3
MOLT-4 = tested on: MOLT-4
HOP-92 = tested on: HOP-92
K562 = tested on: K562
M14 = tested on: M14

For `O=c1[nH]c(Br)nc2[nH]nnc12`, the GI50 (MCF7) was 74.1 µM (inactive), the GI50 (EKVX) was 70.1 µM (inactive) and the GI50 (COLO 205) was > 100 µM (inactive). The GI50 (CAKI-1) was 7.08 µM (inactive), the GI50 (SF-268) was 11 µM (inactive) and the GI50 (SNB-75) was 23.1 µM (inactive). For the same compound, the GI50 (HL-60) was 5.52 µM (inactive), the GI50 (LOX IMVI) was 6.89 µM (inactive) and the GI50 (Hs-578T) was 38.3 µM (inactive). The GI50 (SNB-19) was > 100 µM (inactive), the GI50 (A549) was > 100 µM (inactive) and the GI50 (HCT-116) was 32 µM (inactive). For the same compound, the GI50 (OVCAR-5) was > 100 µM (inactive), the GI50 (PC-3) was 69.5 µM (inactive) and the GI50 (SF-295) was 72.8 µM (inactive). For the same compound, the GI50 (OVCAR-3) was > 100 µM (inactive), the GI50 (MOLT-4) was 2.73 µM (inactive) and the GI50 (HOP-92) was > 100 µM (inactive). The GI50 (K562) was 9.4 µM (inactive) and the GI50 (M14) was 19.8 µM (inactive).
With `Nc1ncc(Sc2ccccc2C(=O)O)s1` the GI50 (MCF7) was > 100 µM (inactive), the GI50 (EKVX) was > 100 µM (inactive) and the GI50 (COLO 205) was > 100 µM (inactive). For the same compound, the GI50 (CAKI-1) was > 100 µM (inactive), the GI50 (SF-268) was > 100 µM (inactive) and the GI50 (SNB-75) was > 100 µM (inactive). The GI50 (HL-60) was > 100 µM (inactive), the GI50 (LOX IMVI) was > 100 µM (inactive) and the GI50 (Hs-578T) was > 100 µM (inactive). For the same compound, the GI50 (SNB-19) was > 100 µM (inactive), the GI50 (A549) was > 100 µM (inactive) and the GI50 (HCT-116) was > 100 µM (inactive). For the same compound, the GI50 (OVCAR-5) was > 100 µM (inactive), the GI50 (PC-3) was > 100 µM (inactive) and the GI50 (SF-295) was > 100 µM (inactive). For the same compound, the GI50 (OVCAR-3) was > 100 µM (inactive), the GI50 (MOLT-4) was > 100 µM (inactive) and the GI50 (HOP-92) was > 100 µM (inactive). For the same compound, the GI50 (K562) was > 100 µM (inactive) and the GI50 (M14) was > 100 µM (inactive).
`COc1ccc(N2C(=O)CC(c3c[nH]c4ncccc34)C2=O)cc1` (stereo not given) was tested, and the GI50 (MCF7) was 27.5 µM (inactive), the GI50 (EKVX) was 37.1 µM (inactive) and the GI50 (COLO 205) was 18.8 µM (inactive). For the same compound, the GI50 (CAKI-1) was 19.7 µM (inactive), the GI50 (SF-268) was > 100 µM (inactive) and the GI50 (SNB-75) was > 100 µM (inactive). For the same compound, the GI50 (HL-60) was 11.5 µM (inactive), the GI50 (LOX IMVI) was > 100 µM (inactive) and the GI50 (Hs-578T) was > 100 µM (inactive). For the same compound, the GI50 (SNB-19) was > 100 µM (inactive), the GI50 (A549) was > 100 µM (inactive) and the GI50 (HCT-116) was 22.5 µM (inactive). For the same compound, the GI50 (OVCAR-5) was 63.2 µM (inactive), the GI50 (PC-3) was 19.4 µM (inactive) and the GI50 (SF-295) was > 100 µM (inactive). For the same compound, the GI50 (OVCAR-3) was 20.7 µM (inactive), the GI50 (MOLT-4) was > 20.7 µM (inactive) and the GI50 (HOP-92) was 19.7 µM (inactive). For the same compound, the GI50 (K562) was 8.09 µM (inactive) and the GI50 (M14) was 23 µM (inactive).
`CCOC(C/N=c1/nc(N(C)C)ss1)OCC` was tested, and the GI50 (MCF7) was 2.5 µM (inactive), the GI50 (EKVX) was 34.1 µM (inactive) and the GI50 (COLO 205) was 0.986 µM (active). For the same compound, the GI50 (CAKI-1) was 22.6 µM (inactive), the GI50 (SF-268) was 30.1 µM (inactive) and the GI50 (SNB-75) was 27.6 µM (inactive). For the same compound, the GI50 (HL-60) was 1.31 µM (inactive), the GI50 (LOX IMVI) was 16.3 µM (inactive) and the GI50 (Hs-578T) was > 54.8 µM (inactive). For the same compound, the GI50 (SNB-19) was > 67.1 µM (inactive), the GI50 (A549) was 57 µM (inactive) and the GI50 (HCT-116) was 14.9 µM (inactive). The GI50 (OVCAR-5) was 19.5 µM (inactive), the GI50 (PC-3) was 14.3 µM (inactive) and the GI50 (SF-295) was 22.2 µM (inactive). The GI50 (OVCAR-3) was 9.89 µM (inactive), the GI50 (MOLT-4) was 0.593 µM (active) and the GI50 (HOP-92) was 18.4 µM (inactive). The GI50 (K562) was 0.354 µM (active) and the GI50 (M14) was 16.9 µM (inactive).
For `C[C@H](CC[C@@H](O)C(C)(C)O)[C@H]1CC[C@@]2(C)[C@@H]3CC=C4[C@@H](CC[C@H](OC5OC(CO)C(O)C(O)C5O)C4(C)C)[C@]3(C)C(=O)C[C@]12C` (stereo not given in full), the GI50 (MCF7) was 51.5 µM (inactive), the GI50 (EKVX) was 80.4 µM (inactive) and the GI50 (COLO 205) was 48.9 µM (inactive). For the same compound, the GI50 (CAKI-1) was 65 µM (inactive), the GI50 (SF-268) was 57.7 µM (inactive) and the GI50 (SNB-75) was 34.3 µM (inactive). The GI50 (HL-60) was 20.7 µM (inactive), the GI50 (LOX IMVI) was 39 µM (inactive) and the GI50 (Hs-578T) was 37.3 µM (inactive). The GI50 (SNB-19) was 62.5 µM (inactive), the GI50 (A549) was 37.2 µM (inactive) and the GI50 (HCT-116) was 45.3 µM (inactive). The GI50 (OVCAR-5) was > 100 µM (inactive), the GI50 (PC-3) was 75 µM (inactive) and the GI50 (SF-295) was 90.4 µM (inactive). For the same compound, the GI50 (OVCAR-3) was 65 µM (inactive), the GI50 (MOLT-4) was 21.1 µM (inactive) and the GI50 (HOP-92) was > 100 µM (inactive). The GI50 (K562) was 18.9 µM (inactive) and the GI50 (M14) was 31.1 µM (inactive).
In the case of `COc1cc(CNCc2cc(OC)c(OC)c(OC)c2)cc(OC)c1OC`, the GI50 (MCF7) is reported as > 10 µM (inactive), the GI50 (EKVX) is reported as > 10 µM (inactive) and the GI50 (COLO 205) is reported as > 10 µM (inactive). The GI50 (CAKI-1) was > 10 µM (inactive), the GI50 (SF-268) was > 10 µM (inactive) and the GI50 (SNB-75) was > 8.38 µM (inactive). For the same compound, the GI50 (HL-60) was > 4.62 µM (inactive), the GI50 (LOX IMVI) was > 8.38 µM (inactive) and the GI50 (Hs-578T) was > 10 µM (inactive). For the same compound, the GI50 (SNB-19) was > 10 µM (inactive), the GI50 (A549) was > 10 µM (inactive) and the GI50 (HCT-116) was > 10 µM (inactive). The GI50 (OVCAR-5) was > 10 µM (inactive), the GI50 (PC-3) was > 10 µM (inactive) and the GI50 (SF-295) was > 10 µM (inactive). For the same compound, the GI50 (OVCAR-3) was > 10 µM (inactive), the GI50 (MOLT-4) was > 5.7 µM (inactive) and the GI50 (HOP-92) was > 6.07 µM (inactive). The GI50 (K562) was > 4.95 µM (inactive) and the GI50 (M14) was > 10 µM (inactive).
With `CCOC(=O)C(O)(C(=O)OCC)c1cc(C(C)(C)C)c(O)c(C(C)(C)C)c1` the GI50 (MCF7) was 40.4 µM (inactive), the GI50 (EKVX) was 48.4 µM (inactive) and the GI50 (COLO 205) was 36.1 µM (inactive). For the same compound, the GI50 (CAKI-1) was 41.2 µM (inactive), the GI50 (SF-268) was 40.7 µM (inactive) and the GI50 (SNB-75) was 27.4 µM (inactive). The GI50 (HL-60) was 25.5 µM (inactive), the GI50 (LOX IMVI) was 37.2 µM (inactive) and the GI50 (Hs-578T) was 32.7 µM (inactive). The GI50 (SNB-19) was 26 µM (inactive), the GI50 (A549) was 54.3 µM (inactive) and the GI50 (HCT-116) was 35.1 µM (inactive). For the same compound, the GI50 (OVCAR-5) was 41.2 µM (inactive), the GI50 (PC-3) was 33.7 µM (inactive) and the GI50 (SF-295) was 22.5 µM (inactive). The GI50 (OVCAR-3) was 76.6 µM (inactive), the GI50 (MOLT-4) was 25.8 µM (inactive) and the GI50 (HOP-92) was 26.9 µM (inactive). For the same compound, the GI50 (K562) was 33.6 µM (inactive) and the GI50 (M14) was 39 µM (inactive).

Source: ChEMBL document CHEMBL1201862, “PubChem BioAssay data set” (2004)
